{"source": "paper PMC3298469", "about": "“A selective and potent CXCR3 antagonist SCH 546738 attenuates the development of autoimmune diseases and delays graft rejection” (BMC Immunology, 2012)", "key": {"Adenosine A1": {"target": "Adenosine A1 (Homo sapiens, UniProt P30542)", "assay": "GPCR counterscreen binding assay", "method": "(§1) SCH 546738 was tested at concentrations of 1-10 μM against a panel of 49 GPCR binding assays. Most of the assays were not affected by SCH 546738 (Table 2). […] In addition, SCH 546738 has a favourable pharmacokinetic profile in rodents. […] Therefore, SCH 546738 is suitable for in vivo preclinical studies."}, "Adenosine A2A": {"target": "Adenosine A2A (Homo sapiens, UniProt P29274)", "assay": "GPCR counterscreen binding assay", "method": "as §1"}, "Adrenergic α1A": {"target": "Adrenergic α1A (Homo sapiens, UniProt P35348)", "sequence (P35348 whole entry)": "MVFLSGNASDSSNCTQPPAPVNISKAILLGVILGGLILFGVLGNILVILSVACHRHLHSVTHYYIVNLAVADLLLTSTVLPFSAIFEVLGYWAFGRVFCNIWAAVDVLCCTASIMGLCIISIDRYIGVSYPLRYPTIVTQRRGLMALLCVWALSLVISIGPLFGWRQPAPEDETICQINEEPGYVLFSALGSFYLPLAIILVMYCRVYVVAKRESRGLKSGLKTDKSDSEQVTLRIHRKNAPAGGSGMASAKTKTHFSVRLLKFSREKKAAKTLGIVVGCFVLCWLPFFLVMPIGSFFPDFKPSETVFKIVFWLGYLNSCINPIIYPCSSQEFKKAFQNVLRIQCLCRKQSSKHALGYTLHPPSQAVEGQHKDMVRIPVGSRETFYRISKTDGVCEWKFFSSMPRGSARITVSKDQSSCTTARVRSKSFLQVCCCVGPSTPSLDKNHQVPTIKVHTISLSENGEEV", "assay": "GPCR counterscreen binding assay", "method": "as §1"}, "Adrenergic α1B": {"target": "Adrenergic α1B (Homo sapiens, UniProt P35368)", "assay": "GPCR counterscreen binding assay", "method": "as §1"}, "Adrenergic α2B": {"target": "Adrenergic α2B (Homo sapiens, UniProt P18089)", "assay": "GPCR counterscreen binding assay", "method": "as §1"}, "CCR1": {"target": "CCR1 (Homo sapiens, UniProt P32246)", "assay": "GPCR counterscreen binding assay", "method": "as §1"}, "CCR2": {"target": "CCR2 (Homo sapiens, UniProt P41597)", "sequence (P41597 whole entry)": "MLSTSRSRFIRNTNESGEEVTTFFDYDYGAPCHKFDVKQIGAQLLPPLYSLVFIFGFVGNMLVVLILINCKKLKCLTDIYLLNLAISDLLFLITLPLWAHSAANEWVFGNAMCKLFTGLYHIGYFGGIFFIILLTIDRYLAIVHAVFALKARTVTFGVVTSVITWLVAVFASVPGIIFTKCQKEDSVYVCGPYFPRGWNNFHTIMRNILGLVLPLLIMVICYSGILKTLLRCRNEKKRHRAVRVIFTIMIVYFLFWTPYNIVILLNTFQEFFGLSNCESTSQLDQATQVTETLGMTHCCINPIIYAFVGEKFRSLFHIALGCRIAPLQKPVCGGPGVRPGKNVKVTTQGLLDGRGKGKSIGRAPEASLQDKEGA", "assay": "GPCR counterscreen binding assay", "method": "as §1"}, "CCR3": {"target": "CCR3 (Homo sapiens, UniProt P51677)", "sequence (P51677 whole entry)": "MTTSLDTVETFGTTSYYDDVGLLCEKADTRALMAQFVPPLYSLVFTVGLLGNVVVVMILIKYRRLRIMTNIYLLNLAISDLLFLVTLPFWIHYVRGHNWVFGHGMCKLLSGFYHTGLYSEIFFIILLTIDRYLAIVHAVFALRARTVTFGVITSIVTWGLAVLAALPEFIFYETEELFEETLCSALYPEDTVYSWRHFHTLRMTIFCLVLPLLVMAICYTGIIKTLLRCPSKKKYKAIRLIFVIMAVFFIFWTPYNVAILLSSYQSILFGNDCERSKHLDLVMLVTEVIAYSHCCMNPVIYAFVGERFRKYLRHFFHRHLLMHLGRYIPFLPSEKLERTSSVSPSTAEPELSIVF", "assay": "GPCR counterscreen binding assay", "method": "as §1"}, "CCR5": {"target": "CCR5 (Homo sapiens, UniProt P51681)", "sequence (P51681 whole entry)": "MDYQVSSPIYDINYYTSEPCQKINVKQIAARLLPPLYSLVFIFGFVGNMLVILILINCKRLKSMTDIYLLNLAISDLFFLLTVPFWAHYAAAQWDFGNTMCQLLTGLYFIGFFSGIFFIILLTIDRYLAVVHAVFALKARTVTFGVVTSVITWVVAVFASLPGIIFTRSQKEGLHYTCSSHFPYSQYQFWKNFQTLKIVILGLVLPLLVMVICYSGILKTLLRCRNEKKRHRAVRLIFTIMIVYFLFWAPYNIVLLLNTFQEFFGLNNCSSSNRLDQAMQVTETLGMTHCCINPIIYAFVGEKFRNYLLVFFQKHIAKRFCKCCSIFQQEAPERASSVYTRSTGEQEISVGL", "assay": "GPCR counterscreen binding assay", "method": "as §1"}, "Delta opiate": {"target": "Delta opiate (Homo sapiens, UniProt P41143)", "assay": "GPCR counterscreen binding assay", "method": "as §1"}, "Dopamine D1": {"target": "Dopamine D1 (Homo sapiens, UniProt P21728)", "assay": "GPCR counterscreen binding assay", "method": "as §1"}, "Dopamine D2": {"target": "Dopamine D2 (Homo sapiens, UniProt P14416)", "sequence (P14416 whole entry)": "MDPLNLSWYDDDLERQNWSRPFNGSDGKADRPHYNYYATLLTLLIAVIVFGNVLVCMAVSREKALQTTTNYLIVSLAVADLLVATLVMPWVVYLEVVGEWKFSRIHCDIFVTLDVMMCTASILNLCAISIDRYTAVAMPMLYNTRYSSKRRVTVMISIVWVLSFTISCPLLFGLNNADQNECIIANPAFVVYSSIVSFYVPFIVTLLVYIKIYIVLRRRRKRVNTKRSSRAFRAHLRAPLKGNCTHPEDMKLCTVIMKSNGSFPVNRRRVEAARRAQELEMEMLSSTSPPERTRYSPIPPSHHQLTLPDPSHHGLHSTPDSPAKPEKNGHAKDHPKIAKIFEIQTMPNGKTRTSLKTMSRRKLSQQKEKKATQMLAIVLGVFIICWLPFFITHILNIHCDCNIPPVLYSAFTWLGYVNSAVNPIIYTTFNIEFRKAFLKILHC", "assay": "GPCR counterscreen binding assay", "method": "as §1"}, "Dopamine D3": {"target": "Dopamine D3 (Homo sapiens, UniProt P35462)", "sequence (P35462 whole entry)": "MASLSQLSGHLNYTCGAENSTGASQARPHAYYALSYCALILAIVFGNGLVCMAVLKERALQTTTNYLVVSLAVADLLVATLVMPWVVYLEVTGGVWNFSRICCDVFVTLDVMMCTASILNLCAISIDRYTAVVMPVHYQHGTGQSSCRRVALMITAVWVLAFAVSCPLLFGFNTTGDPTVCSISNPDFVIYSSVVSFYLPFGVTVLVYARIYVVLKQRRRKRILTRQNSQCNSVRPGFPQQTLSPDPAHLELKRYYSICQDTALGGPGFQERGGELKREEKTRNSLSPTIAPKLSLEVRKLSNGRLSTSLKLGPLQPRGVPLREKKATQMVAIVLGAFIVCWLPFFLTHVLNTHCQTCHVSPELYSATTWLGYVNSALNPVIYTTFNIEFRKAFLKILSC", "assay": "GPCR counterscreen binding assay", "method": "as §1"}, "Histamine H1": {"target": "Histamine H1 (Homo sapiens, UniProt P35367)", "sequence (P35367 whole entry)": "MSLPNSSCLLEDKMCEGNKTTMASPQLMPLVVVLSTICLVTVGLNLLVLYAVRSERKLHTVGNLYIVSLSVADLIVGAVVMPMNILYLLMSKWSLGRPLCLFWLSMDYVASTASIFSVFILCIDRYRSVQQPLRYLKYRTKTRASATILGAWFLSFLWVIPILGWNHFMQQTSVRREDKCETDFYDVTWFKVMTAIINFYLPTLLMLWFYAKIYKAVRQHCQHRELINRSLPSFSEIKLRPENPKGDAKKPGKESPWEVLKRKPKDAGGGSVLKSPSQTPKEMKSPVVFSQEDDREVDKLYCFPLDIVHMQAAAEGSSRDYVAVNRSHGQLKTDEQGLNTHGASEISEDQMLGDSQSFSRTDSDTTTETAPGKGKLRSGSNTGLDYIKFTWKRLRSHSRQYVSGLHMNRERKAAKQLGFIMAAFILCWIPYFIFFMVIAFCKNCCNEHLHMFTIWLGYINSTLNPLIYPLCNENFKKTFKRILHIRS", "assay": "GPCR counterscreen binding assay", "method": "as §1"}, "Histamine H3": {"target": "Histamine H3 (Homo sapiens, UniProt Q9Y5N1)", "assay": "GPCR counterscreen binding assay", "method": "as §1"}, "MRGX2": {"target": "MRGX2 (Homo sapiens, UniProt Q96LB1)", "sequence (Q96LB1 whole entry)": "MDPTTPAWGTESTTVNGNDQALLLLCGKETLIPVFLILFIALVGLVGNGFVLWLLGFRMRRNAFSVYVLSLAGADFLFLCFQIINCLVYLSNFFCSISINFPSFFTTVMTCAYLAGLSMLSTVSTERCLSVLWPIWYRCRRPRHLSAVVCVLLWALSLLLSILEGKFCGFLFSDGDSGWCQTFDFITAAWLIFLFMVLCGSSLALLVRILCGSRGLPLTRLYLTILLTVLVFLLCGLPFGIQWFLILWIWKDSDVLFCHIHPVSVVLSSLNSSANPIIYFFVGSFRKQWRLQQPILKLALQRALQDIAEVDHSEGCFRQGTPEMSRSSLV", "assay": "GPCR counterscreen binding assay", "method": "as §1"}, "Muscarinic M2": {"target": "Muscarinic M2 (Homo sapiens, UniProt P08172)", "assay": "GPCR counterscreen binding assay", "method": "as §1"}, "Muscarinic M3": {"target": "Muscarinic M3 (Homo sapiens, UniProt P20309)", "assay": "GPCR counterscreen binding assay", "method": "as §1"}, "Neurokinin NK1": {"target": "Neurokinin NK1 (Homo sapiens, UniProt P25103)", "sequence (P25103 whole entry)": "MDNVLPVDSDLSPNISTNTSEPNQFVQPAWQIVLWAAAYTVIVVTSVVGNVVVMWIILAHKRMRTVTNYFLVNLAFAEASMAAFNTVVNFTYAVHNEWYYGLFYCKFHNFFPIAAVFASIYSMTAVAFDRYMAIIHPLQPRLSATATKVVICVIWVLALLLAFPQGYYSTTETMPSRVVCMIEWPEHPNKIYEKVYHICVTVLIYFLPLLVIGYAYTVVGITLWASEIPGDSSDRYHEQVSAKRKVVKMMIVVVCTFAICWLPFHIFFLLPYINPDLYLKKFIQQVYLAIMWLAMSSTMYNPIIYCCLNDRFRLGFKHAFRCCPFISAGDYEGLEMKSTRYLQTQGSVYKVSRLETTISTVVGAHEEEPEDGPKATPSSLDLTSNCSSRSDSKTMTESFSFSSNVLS", "assay": "GPCR counterscreen binding assay", "method": "as §1"}, "Neurokinin NK2": {"target": "Neurokinin NK2 (Homo sapiens, UniProt P21452)", "sequence (P21452 whole entry)": "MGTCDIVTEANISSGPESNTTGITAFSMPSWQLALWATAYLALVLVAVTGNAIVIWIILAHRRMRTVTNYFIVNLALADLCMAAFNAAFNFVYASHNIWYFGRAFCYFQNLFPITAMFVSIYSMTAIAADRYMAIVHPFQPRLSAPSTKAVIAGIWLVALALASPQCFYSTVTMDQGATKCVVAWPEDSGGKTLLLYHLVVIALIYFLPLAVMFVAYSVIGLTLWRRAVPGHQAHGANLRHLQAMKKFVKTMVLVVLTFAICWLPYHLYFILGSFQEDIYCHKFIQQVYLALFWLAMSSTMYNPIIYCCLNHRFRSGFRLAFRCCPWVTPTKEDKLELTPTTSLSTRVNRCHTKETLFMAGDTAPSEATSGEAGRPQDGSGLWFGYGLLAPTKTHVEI", "assay": "GPCR counterscreen binding assay", "method": "as §1"}, "Neurokinin NK3": {"target": "Neurokinin NK3 (Homo sapiens, UniProt P29371)", "assay": "GPCR counterscreen binding assay", "method": "as §1"}, "Neuropeptide Y (Y1)": {"target": "Neuropeptide Y (Y1) (Homo sapiens, UniProt P25929)", "assay": "GPCR counterscreen binding assay", "method": "as §1"}, "Neuropeptide Y (Y5)": {"target": "Neuropeptide Y (Y5) (Homo sapiens, UniProt Q15761)", "assay": "GPCR counterscreen binding assay", "method": "as §1"}, "Nociceptin NOP1": {"target": "Nociceptin NOP1 (Homo sapiens, UniProt P41146)", "assay": "GPCR counterscreen binding assay", "method": "as §1"}, "Prokineticin PKR1": {"target": "Prokineticin PKR1 (Homo sapiens, UniProt Q8TCW9)", "assay": "GPCR counterscreen binding assay", "method": "as §1"}, "Prokineticin PKR2": {"target": "Prokineticin PKR2 (Homo sapiens, UniProt Q8NFJ6)", "sequence (Q8NFJ6 whole entry)": "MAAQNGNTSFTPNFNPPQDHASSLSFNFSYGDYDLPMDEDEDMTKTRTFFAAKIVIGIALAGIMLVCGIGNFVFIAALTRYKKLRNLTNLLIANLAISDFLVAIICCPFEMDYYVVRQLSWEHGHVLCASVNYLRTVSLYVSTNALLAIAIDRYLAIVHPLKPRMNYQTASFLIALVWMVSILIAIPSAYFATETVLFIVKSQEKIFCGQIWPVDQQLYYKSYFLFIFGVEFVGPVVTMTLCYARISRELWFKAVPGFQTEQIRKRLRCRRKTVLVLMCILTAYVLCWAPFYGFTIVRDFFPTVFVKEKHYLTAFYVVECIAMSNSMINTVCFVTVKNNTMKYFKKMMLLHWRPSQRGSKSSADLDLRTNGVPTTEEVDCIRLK", "assay": "GPCR counterscreen binding assay", "method": "as §1"}, "Purinergic P2Y1": {"target": "Purinergic P2Y1 (Homo sapiens, UniProt P47900)", "assay": "GPCR counterscreen binding assay", "method": "as §1"}, "Purinergic P2Y1_2": {"test_system": "Purinergic P2Y1_2", "assay": "GPCR counterscreen binding assay", "conditions": "@ 4 μM", "method": "as §1"}, "VR1N": {"test_system": "VR1N", "assay": "GPCR counterscreen binding assay", "conditions": "@ 4 μM", "method": "as §1"}, "Vasopressin (V1a)": {"target": "Vasopressin (V1a) (Homo sapiens, UniProt P37288)", "sequence (P37288 whole entry)": "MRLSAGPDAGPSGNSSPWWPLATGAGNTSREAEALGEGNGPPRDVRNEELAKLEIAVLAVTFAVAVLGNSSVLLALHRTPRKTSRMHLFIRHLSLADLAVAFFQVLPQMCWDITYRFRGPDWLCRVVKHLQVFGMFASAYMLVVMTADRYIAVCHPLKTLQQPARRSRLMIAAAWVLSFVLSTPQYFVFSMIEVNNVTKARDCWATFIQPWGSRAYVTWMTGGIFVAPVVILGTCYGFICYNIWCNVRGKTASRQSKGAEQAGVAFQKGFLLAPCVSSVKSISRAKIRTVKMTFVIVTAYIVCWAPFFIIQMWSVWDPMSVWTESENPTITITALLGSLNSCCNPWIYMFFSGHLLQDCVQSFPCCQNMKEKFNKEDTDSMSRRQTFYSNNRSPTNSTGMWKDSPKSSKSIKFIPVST", "assay": "GPCR counterscreen binding assay", "method": "as §1"}, "Vasopressin (V1b)": {"target": "Vasopressin (V1b) (Homo sapiens, UniProt P47901)", "assay": "GPCR counterscreen binding assay", "method": "as §1"}, "Vasopressin (V2)": {"target": "Vasopressin (V2) (Homo sapiens, UniProt P30518)", "assay": "GPCR counterscreen binding assay", "method": "as §1"}, "[1]": {"assay": "plasma pharmacokinetics after oral dosing in C57BL/6 mouse", "type": "in vivo", "conditions": "30 mg/kg, 30 mpk oral in 0.4% methylcellulose, n = 3, read-out: AUC (0-24 hr)", "method": "as §1\nFigure 4 Plasma concentration versus time profiles of SCH 546738 in Lewis rat and C57BL/6 mouse. SCH 546738 in 0.4% methylcellulose was administered orally at 10 mg/kg (mpk) in Lewis rats or 30 mpk in C57BL/6 mice. The plasma concentration of SCH 546738 in the blood was calculated as the mean of 3 animals (n = 3) at indicated time points post-dose. Their AUC from 0 to 24 hr is also calculated and indicated."}, "rat cardiac allograft": {"test_system": "rat cardiac allograft", "assay": "rat cardiac allograft transplant model (ACI to Lewis)", "type": "in vivo", "conditions": "for mean survival time of the graft (MST): vehicle MST = 6 days", "method": "Cardiac graft of ACI (RT1a) rats was heterotopically transplanted into the abdominal cavity of Lewis (RT1^l) recipients employing a microvascular surgical technique as described. The grafts were monitored daily by abdominal palpation, and the complete cessation of heart contraction was defined as graft rejection. SCH 546738 or 0.4% methylcellulose (vehicle) was orally administered at the indicated dose (0.2 ml) twice a day, starting on the day before transplantation until the day of graft rejection. To test whether SCH 546738 enhanced the effect of conventional immunosuppressive reagent, the recipients were received treatment with subtherapeutic dose of CsA for one week combined with treatment with SCH 546738. Graft survival was analyzed using the log-rank test. The parametric data were analyzed by Student t test (2-tailed) using GraphPad InStat version 5.0.1 for Windows 98, GraphPad Software, San Diego California USA (http://www.graphpad.com). p < 0.05 was considered statistically significant.\nSCH 546738 was administered orally twice daily at 1, 5 and 15 mpk. […] Graft survival was analyzed using the log-rank test."}}}
{"smiles": "CC[C@H]1CN(c2nc(N)c(C(N)=O)nc2Cl)CCN1C1CCN(Cc2ccc(Cl)cc2)CC1", "note": "[SCH 546738]", "values": [{"measurement": "inhibition at 4 µM", "setting": "Adenosine A1", "result": 0, "unit": "%"}, {"measurement": "inhibition at 4 µM", "setting": "Adenosine A2A", "result": 3, "unit": "%"}, {"measurement": "inhibition at 2 µM", "setting": "Adrenergic α1A", "result": 11, "unit": "%"}, {"measurement": "inhibition at 2 µM", "setting": "Adrenergic α1B", "result": 25, "unit": "%"}, {"measurement": "inhibition at 2 µM", "setting": "Adrenergic α2B", "result": -2, "unit": "%"}, {"measurement": "inhibition at 10 µM", "setting": "CCR1", "result": 9, "unit": "%"}, {"measurement": "inhibition at 10 µM", "setting": "CCR2", "result": 9, "unit": "%"}, {"measurement": "inhibition at 10 µM", "setting": "CCR3", "result": 17, "unit": "%"}, {"measurement": "inhibition at 10 µM", "setting": "CCR5", "result": 10, "unit": "%"}, {"measurement": "inhibition at 4 µM", "setting": "Delta opiate", "result": 12, "unit": "%"}, {"measurement": "inhibition at 4 µM", "setting": "Dopamine D1", "result": 6, "unit": "%"}, {"measurement": "inhibition at 4 µM", "setting": "Dopamine D2", "result": 41, "unit": "%"}, {"measurement": "inhibition at 10 µM", "setting": "Dopamine D3", "result": 18, "unit": "%"}, {"measurement": "inhibition at 2 µM", "setting": "Histamine H1", "result": 46, "unit": "%"}, {"measurement": "inhibition at 2 µM", "setting": "Histamine H3", "result": 29, "unit": "%"}, {"measurement": "inhibition at 4 µM", "setting": "MRGX2", "result": 25, "unit": "%"}, {"measurement": "inhibition at 4 µM", "setting": "Muscarinic M2", "result": 52, "unit": "%"}, {"measurement": "inhibition at 4 µM", "setting": "Muscarinic M3", "result": 27, "unit": "%"}, {"measurement": "inhibition at 2 µM", "setting": "Neurokinin NK1", "result": 15, "unit": "%"}, {"measurement": "inhibition at 2 µM", "setting": "Neurokinin NK2", "result": 0, "unit": "%"}, {"measurement": "inhibition at 2 µM", "setting": "Neurokinin NK3", "result": 0, "unit": "%"}, {"measurement": "inhibition at 4 µM", "setting": "Neuropeptide Y (Y1)", "result": 4, "unit": "%"}, {"measurement": "inhibition at 4 µM", "setting": "Neuropeptide Y (Y5)", "result": 12, "unit": "%"}, {"measurement": "inhibition at 4 µM", "setting": "Nociceptin NOP1", "result": -21, "unit": "%"}, {"measurement": "inhibition at 4 µM", "setting": "Prokineticin PKR1", "result": -1, "unit": "%"}, {"measurement": "inhibition at 4 µM", "setting": "Prokineticin PKR2", "result": -5, "unit": "%"}, {"measurement": "inhibition at 4 µM", "setting": "Purinergic P2Y1", "result": 16, "unit": "%"}, {"measurement": "Inhibition (%)", "setting": "Purinergic P2Y1_2", "result": 10, "unit": "% @ 4 μM"}, {"measurement": "Inhibition (%)", "setting": "VR1N", "result": 0, "unit": "% @ 4 μM"}, {"measurement": "inhibition at 4 µM", "setting": "Vasopressin (V1a)", "result": 7, "unit": "%"}, {"measurement": "inhibition at 4 µM", "setting": "Vasopressin (V1b)", "result": 15, "unit": "%"}, {"measurement": "inhibition at 4 µM", "setting": "Vasopressin (V2)", "result": 18, "unit": "%"}, {"measurement": "AUC(0-t)", "setting": "[1]", "result": 12.6, "unit": "µM·h"}, {"measurement": "mean survival time of the graft (MST)", "setting": "rat cardiac allograft; 1 mpk oral twice daily", "result": 11, "unit": "days"}, {"measurement": "rate of permanent engraftment", "setting": "rat cardiac allograft; 5 mpk SCH 546738 twice daily in combination with 2.5 mpk cyclosporine", "result": 100, "unit": "%"}, {"measurement": "mean survival time of the graft (MST)", "setting": "rat cardiac allograft; 5 mpk oral twice daily", "result": 14, "unit": "days"}, {"measurement": "mean survival time of the graft (MST)", "setting": "rat cardiac allograft; 15 mpk oral twice daily", "result": 14.9, "unit": "days"}]}
